Laboratory results reported in the NIST ThermoML archive (doi:10.1016/j.fluid.2014.12.029).
Numbers after ± are expanded uncertainties.

How the values were obtained:
[1] = Liquid; for mass density: 298.15 K, 101.33 kPa, Pycnometric method; for Normal boiling temperature: Ebulliometric method (Recirculating still)
[2] = Boiling temperature at pressure P; conditions: Liquid, Ebulliometric method (Recirculating still)
[3] = refractive index (Na D-line) (dimensionless); conditions: 298.15 K; 101.33 kPa; Liquid; Standard Abbe refractometry

SMILES: CCCCOCOC [1-(methoxymethoxy)-butane]
- mass density [1]: 837.1 ± 0.8 kg/m3
- Normal boiling temperature [1]: 119.44 ± 0.2 °C
- Boiling temperature at pressure P ([2]; 8.01 kPa): 49.24 ± 0.21 °C
- Boiling temperature at pressure P ([2]; 20 kPa): 70.88 ± 0.2 °C
- Boiling temperature at pressure P ([2]; 30 kPa): 81.73 ± 0.2 °C
- Boiling temperature at pressure P ([2]; 34.84 kPa): 85.81 ± 0.2 °C
- Boiling temperature at pressure P ([2]; 39.85 kPa): 89.66 ± 0.2 °C
- Boiling temperature at pressure P ([2]; 50 kPa): 96.50 ± 0.2 °C
- Boiling temperature at pressure P ([2]; 55.02 kPa): 99.39 ± 0.2 °C
- refractive index [3]: 1.387 ± 0.0007

SMILES: CCCCO [butan-1-ol]
- mass density [1]: 805.2 ± 0.7 kg/m3
- refractive index [3]: 1.3967 ± 0.0007

SMILES: CCCO [propan-1-ol]
- mass density [1]: 799.3 ± 0.7 kg/m3
- Normal boiling temperature [1]: 97.16 ± 0.2 °C
- refractive index [3]: 1.3833 ± 0.0007
